This is an account of results in patent US12590099B2, “Inhibitors of histone deacetylase useful for the treatment or prevention of HIV infection” (Merck Sharp & Dohme LLC, priority 2018, dated 2026).

Usually EC50 stands for the concentration needed to bring the measured effect to its halfway point.

Where two headings read alike, the source gives them in different places.

The test concerns KARN cells (Jurkat 2C4). Put plainly: cells. It counts as cell-based. The method in brief: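 Luminescence (Steady-Glo, 10 min, room temperature) measured next day in KARN Jurkat 2C4 cells given compounds at up to 40 μM final with 0.4% DMSO. Percent activation normalised to DMSO (0%) and 2 μM SAHA (100%), fitted by 4-parameter curve.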
Where [1] appears, read: read-out: Karn EC50 (nM) 0.1% NHS, 0.1% normal human serum.
[2] abbreviates: read-out: Karn EC50 (nM) 5% NHS, 5% normal human serum.
The mark [3] stands for this setting: Homo sapiens, Jurkat, read-out: Karn EC50 (nM) 0.1% NHS, 0.1% normal human serum.
The mark [4] stands for this setting: Homo sapiens, Jurkat, read-out: Karn EC50 (nM) 5% NHS, 5% normal human serum.

Regarding `CCC(=O)CCCCC[C@H](NC(=O)C1CC12CCN(C)C(C)(C)C2)c1ncc(-c2ccc3nc(C)ccc3c2)[nH]1` (single isomer, unassigned) [Compound 130], the EC50 under setting [1] was found to be 503 nM and the EC50 under setting [2] worked out at 598 nM. Take `CCC(=O)CCCCC[C@H](NC(=O)C1CC12CCN(C)C(C)(C)C2)c1ncc(-c2ccc3nc(C)ccc3c2)[nH]1` (single isomer, unassigned) [Compound 131]: the EC50 by setting is: under setting [1], 126 nM; under setting [2], 128 nM. In the same order, the values of `CCC(=O)CCCCC[C@H](NC(=O)C1CC12CCN(C)C(C)(C)C2)c1ncc(-c2ccc3nc(C)ccc3c2)[nH]1` (single isomer, unassigned) [Compound 132] are 169 nM and 281 nM.

For the compound `CCC(=O)CCCCC[C@H](NC(=O)C1CC12CCN(C)C(C)(C)C2)c1ncc(-c2ccc3nc(C)ccc3c2)[nH]1` (single isomer, unassigned) [Compound 133], the EC50 runs as follows: under setting [1], 89 nM; under setting [2], 81 nM. In the case of `CCC(=O)CCCCC[C@H](NC(=O)[C@@]1(C)CC12CCN(C(C)C)CC2)c1ncc(-c2ccc3nc(C)ccc3c2)[nH]1` (single isomer, unassigned) [Compound 151, (1S or 1R)-1-methyl-6-(1-methylethyl)-N-{(1S)-1-[5-(2-methylquinolin-6-yl)-1H-imidazol-2-yl]-7-oxononyl}-6-azaspiro[2.5]octane-1-carboxamide], the EC50 runs as follows: under setting [3], 583 nM; under setting [4], 864 nM.

As for `CCC(=O)CCCCC[C@H](NC(=O)C1(C)CC12CCN(C(C)C)CC2)c1ncc(-c2ccc3nc(C)ccc3c2)[nH]1` (single isomer, unassigned) [Compound 152, (1S or 1R)-1-methyl-6-(1-methylethyl)-N-{(1S)-1-[5-(2-methylquinolin-6-yl)-1H-imidazol-2-yl]-7-oxononyl}-6-azaspiro[2.5]octane-1-carboxamide], the EC50 was determined as 128 nM under setting [3] and 96 nM under setting [4]. Take `CCC(=O)CCCCC[C@H](NC(=O)C1CC12CC1CCC(C2)N1C)c1ncc(-c2ccc3ncccc3c2)[nH]1` (single isomer, unassigned) [Compound 166]: the EC50 reads like this: under setting [3], 469 nM; under setting [4], 591 nM. For `CCC(=O)CCCCC[C@H](NC(=O)C1CN(C)C1)c1[nH]c(-c2ccc(F)cc2)nc1Br` [Compound 65, N-{(1S)-1-[4-bromo-2-(4-fluorophenyl)-1H-imidazol-5-yl]-7-oxononyl}-1-methylazetidine-3-carboxamide], the EC50 reads like this: under setting [3], 2190 nM; under setting [4], 4390 nM.

As to `CCC(=O)CCCCC[C@H](NC(=O)[C@H]1CC12CCN(C)CC2)c1ncc(-c2ccc3nc(N(C)C)ccc3c2)[nH]1` [Compound 66, (1S)—N-[(1S)-1-{5-[2-(dimethylamino)quinolin-6-yl]-1H-imidazol-2-yl}-7-oxononyl]-6-methyl-6-azaspiro[2.5]octane-1-carboxamide], the EC50 is, setting by setting: under setting [3], 27 nM; under setting [4], 14 nM. As for `CCC(=O)CCCCC[C@H](NC(=O)[C@H]1CC12CCN(C)CC2)c1ncc(-c2cnc3cccnc3c2)[nH]1` [Compound 67], the EC50 worked out at 6480 nM under setting [3] and 6350 nM under setting [4].

With `CN1CCC2(CC1)C[C@@H]2C(=O)N[C@@H](CCCCCC(=O)CC(F)(F)F)c1ncc(-c2ccc(F)cc2)[nH]1` [Compound 68], under setting [3], the concentration for a half-maximal effect (EC50) is greater than 40000 nM. With `CCC(=O)CCCCC[C@H](NC(=O)C1CN(C)C1)c1ncc(-c2ccc3c(c2)C2CCC3C2)[nH]1` (stereo partly drawn) [Compound 73, 1-methyl-N-{(1S)-7-oxo-1-[5-(1,2,3,4-tetrahydro-1,4-methanonaphthalen-6-yl)-1H-imidazol-2-yl]nonyl}azetidine-3-carboxamide], the EC50 runs as follows: under setting [3], 740 nM; under setting [4], 1450 nM. For the compound `CCC(=O)CCCCC[C@H](NC(=O)[C@H]1CC12CCN(C)CC2)c1ncc(-c2ccc3c(c2)C2CCC3C2)[nH]1` (stereo partly shown) [Compound 74], the EC50 reads like this: under setting [3], 351 nM; under setting [4], 376 nM.
